Experimental data taken from patent US20050209157A1, “Short bioactive peptides and methods for their use” (priority 2001, published 2005).
Like-named read-outs stand apart in the source and are kept apart here. No end group written: not given here.

Experiments:
[1] = test system: yeast (Saccharomyces cerevisiae); experiment: Antimicrobial assay I, yeast assay in RPMI 1640; assay type: cell-based; settings: RPMI 1640 media
H1299 = experiment: Anti-cancer assay, MTT, LD50; assay type: cell-based; settings: 24 hours with peptide, lung large cell carcinoma
Source text: (§1) Numbers are LD50 values (μg/mL).

PC3 = experiment: Anti-cancer assay, MTT, LD50; assay type: cell-based; settings: 24 hours with peptide, prostate adenocarcinoma
Source text: as §1

HeLaS3 = experiment: Anti-cancer assay, MTT, LD50; assay type: cell-based; settings: 24 hours with peptide, cervical carcinoma
Source text: as §1

SW480 = experiment: Anti-cancer assay, MTT, LD50; assay type: cell-based; settings: SW480 colon adenocarcinoma line, 24 hours with peptide
Source text: as §1

BMKC = experiment: Anti-cancer assay, MTT, LD50; assay type: cell-based; settings: BMKC cloned melanoma line, 24 hours with peptide
Source text: as §1

MCF7 = experiment: Anti-cancer assay, MTT, LD50; assay type: cell-based; settings: for LD50 MCF7: MCF7 breast adenocarcinoma line, MTT, 24 hours with peptide; for MCF7 LD50: Table 41, lower part
Source text: as §1

[2] = test system: Staphylococcus aureus ATCC 6538; experiment: Antimicrobial assay I, MIC by OD measurement; assay type: cell-based; settings: 37° C. for 24 hours, absorbance 620 nm
[3] = test system: Pseudomonas aeruginosa ATCC 9027; experiment: Antimicrobial assay I, MIC by OD measurement; assay type: cell-based; settings: 37° C. for 24 hours, absorbance 620 nm
WI38 = settings: MTT, 24 hours with peptide; normal fibroblast line
Procedure: (§3) Viability of cells is determined by the dye response. In the following procedure, approximately 1.5×10^4 cells per well were added and viability was determined with the cells in a semi-confluent state. The assay was performed in a 96-well microtiter plate. After addition of peptide, the plate was set for 24 hours. MTT (5 mg/ml in phenol red-free RPMI-1640, 20 μl) was added to each well including positive control wells untreated with peptide. The plate was incubated at 37° C. for 4 hours. The liquid contents of each well was removed, and isopropanol with 0.1 M HCl (100 μl) was added to each well. The plate was sealed with parafilm to prevent evaporation of the isopropanol. The plate is allowed to rest for 5-10 minutes in order to solubilize the precipitate. Purified water (100 μl) was added to each well. Absorbance was determined with an ELISA Reader instrument. Color intensity at 540 nm is proportional to viability of cells.
(§4) WI38 (ATCC No. CCL75) is a normal fibroblast line of lung diploid cells, MCF7 (ATCC No. HTB22) is a breast adenocarcinoma tumor cell line, SW480 (ATCC No. CCL228) is a colon adenocarcinoma tumor cell line, BMKC is a cloned melanoma line derived from Bowes melanoma line HMCB (ATCC No. CRL9607), H1299 (ATCC No. CRL5803) is a lung large cell carcinoma tumor line, HeLaS3 (ATCC No. CCL2.2) is a cervical epitheleal carcinoma tumor cell line, and PC3 (ATCC No. CRL1435) is a prostate adenocarcinoma tumor cell line.

in vitro [4] = assay type: cell-based, human; settings: human, human red blood cells
in vitro [5] = settings: human, WI38 normal lung fibroblast cells
Procedure: as §3, §4

[6] = test system: clinical tobramycin resistant strain 960890198-3c; experiment: Activity against drug resistant strains; assay type: cell-based; settings: for activity against tr Pseudomonas 960890198-3c: clinical tobramycin resistant strain, Table 47; for activity against clinical tobramycin resistant strain: strain 960890198-3c
Procedure: (§2) Peptides were assayed for their activity against tobramycin sensitive and resistant strains.

[7] = test system: tobramycin sensitive (ts) Pseudomonas ATCC 27853; experiment: Activity against drug resistant strains; assay type: cell-based; settings: tobramycin sensitive strain
Procedure: as §2

[8] = test system: human red blood cells (RBC); experiment: in vitro; assay type: cell-based; settings: hemolytic assay, concentration at 50% hemolysis, 1 hour at 37° C.
[9] = test system: tobramycin resistant (tr) Pseudomonas ATCC 13096; experiment: Activity against drug resistant strains; assay type: cell-based; settings: for activity against tobramycin resistant versus tobramycin sensitive Pseudomonas: ATCC 13096 (tr) compared with ATCC 27853 (ts); for activity against tr Pseudomonas 13096: tobramycin resistant strain, Table 46
Procedure: as §2

[10] = Leukocyte (WBC) inhibition, toxicity LD50; assay type: cell-based, human; settings: male, human, human leukocytes (buffy coat cells, mostly PBMCs); Table 41, lower part
Procedure: In vitro viability of human leukocyte cells in the presence of different peptides at different concentrations was determined by an Alamar Blue protocol. Alamar Blue (Promega, Madison, Wis.) is an indicator dye, formulated to measure quantitatively the proliferation and cytotoxicity of the cells. The dye consists of an oxidation-reduction (redox) indicator that yields a calorimetric change and a fluorescent signal in response to cellular metabolic activity.
Assay protocol: Blood from a human was drawn and centrifuged at 1500 rpm for 15 minutes at room temperature. The buffy coat cells at the plasma-red blood cell interface were aspirated. Buffy coat cells (mainly lymphocyte cells) were then transferred into 15 ml centrifuge tubes containing 5 ml of RPMI-1640 medium+10% Fetal Bovine Serum (Gibco, Grand Island, N.Y.). Additional medium was added to the tubes to bring the volume up to 10 ml. The buffy coat suspension was then carefully layered on 5 ml of Histopaque (Sigma Chemical Co., St. Louis, Mo.) and centrifuged at 1500 rpm for 30 minutes at room temperature. The interface which is mostly PBMCs (peripheral mononuclear cells) was aspirated and transferred to a 15 ml conical centrifuge tube and, resuspended in 2 ml cold RPMI-1640 and brought up to 15 ml with cold RPMI-1640 medium. Cells were centrifuged at 1500 rpm for 10 minutes. The supernatant was then aspirated and discarded. The cell pellet was re-suspended in 1 ml of cold RPMI 1640 and brought up to 15 ml with RPMI medium. This step was repeated twice, except that in the last step, the cells were resuspended with 1 ml of cold RPMI-1640 medium and cell counts were performed with a hemocytometer according to the Sigma cell culture catalogue.
Pokewood mitogen was used as a control along with positive and negative controls. Negative control cells were killed with 70% methanol. Positive (+) control cells were incubated in RPMI medium (untreated). […] of AlamarBlue was added to the cells, and readings were taken after 24 hours, 48 hours, 72 hours, and 96 hours using a fluorimeter (excitation 544/transmission 590 nm).
In choosing a peptide for possible treatment of a given indication it is important to match the therapeutic activity and specificity of the peptide with its possible toxic properties.
The protocols for WBC and WI38 stimulation have been discussed above. The RBC protocol follows Table 24.

[11] = test system: MCF7 line of breast cancer cells; settings: for MCF7 LD50: agent alone; for Active agent LD50 on MCF7 cells: Total conc.: peptide plus tamoxifen concentration at LD50; for Active agent LD50 on MCF7 cells: Peptide conc.: peptide with tamoxifen, peptide concentration at LD50; for Active agent LD50 on MCF7 cells: Tamox. conc.: tamoxifen concentration at LD50 (peptide with tamoxifen; tamoxifen alone in its own line)
[12] = LD50 WI38, WI38 normal lung fibroblast line, MTT, 24 hours with peptide
[13] = pH 7, Table 41, lower part, read-out: RBC LD50
[14] = WI38 LD50, Table 41, lower part

Substance | yeast (MIC or MFC) [1] | H1299 LD50 (H1299) | PC3 LD50 (PC3) | HeLaS3 LD50 (HeLaS3) | LD50 SW480 (SW480) | LD50 BMKC (BMKC) | LD50 MCF7 (MCF7) | staph6538 (MIC) [2] | paerug9027 (MIC) [3] | WI38 LD50 (WI38) | CC50 at 24 h (in vitro [5]; [12]) | CC50 [10] | MCF7 LD50 (MCF7) | HC50 at 1 h (in vitro [4]; [13]) | MCF7 LD50 [11] | Active agent LD50 on MCF7 cells: Total conc. [11] | Active agent LD50 on MCF7 cells: Peptide conc. [11] | Active agent LD50 on MCF7 cells: Tamox. conc. [11] | CC50 at 24 h (in vitro [5]; [14]) | other results
FAKALAKLAKKLL-NH2 [P92] | 50 µg/mL | 25 µg/mL | 83 µg/mL | 670 µg/mL | 51 µg/mL | 46 µg/mL | 23 µg/mL | 5 µg/mL | 5 µg/mL | 43 µg/mL | 43 µg/mL |  |  |  |  |  |  |  |  | HC50 at 1 h (in vitro [4]; pH 7, hemolytic assay, concentration at 50% hemolysis, 1 hour at 37° C., read-out: LD50): 300 µg/mL; activity against tr Pseudomonas 960890198-3c [6]: 50; activity against ts Pseudomonas 27853 ([7]; Table 47): 63
FAKKLAKKLAKAL-NH2 [P74, FAKKLAKKLAKAL-NH2] | 100 µg/mL | 670 µg/mL | 660 µg/mL | 260 µg/mL | 340 µg/mL | 460 µg/mL | 465 µg/mL | 15 µg/mL | 5 µg/mL | 335 µg/mL | 335 µg/mL |  |  |  |  |  |  |  |  | LD50 [8]: > (> indicates greater than 1000); activity against tr Pseudomonas 960890198-3c [6]: 25; activity against clinical tobramycin resistant strain [6]: greater activity against clinical tobramycin resistant strain 960890198-3c; activity against ts Pseudomonas 27853 ([7]; Table 46): 125; activity against ts Pseudomonas 27853 ([7]; Table 47): 125; activity against tobramycin resistant versus tobramycin sensitive Pseudomonas [9]: greater activity against tobramycin resistant (tr) Pseudomonas ATCC 13096 than against tobramycin sensitive (ts) Pseudomonas ATCC 27853; activity against tr Pseudomonas 13096 [9]: 16
FAKKLAKKLKKLAKKLAK-NH2 [164 (69)] |  |  |  |  |  |  |  |  |  |  |  | 140 µg/mL | 79 µg/mL | 900 µg/mL | 79 µg/mL | 7.1 µg/mL | 2.5 µg/mL | 4.6 µg/mL | 60 µg/mL | 
FAKLLAKLAKKIL-NH2 [P125] | 50 µg/mL | 76 µg/mL | 145 µg/mL | 220 µg/mL | 125 µg/mL | 220 µg/mL | 90 µg/mL | 10 µg/mL | 100 µg/mL | 90 µg/mL | 90 µg/mL |  |  |  |  |  |  |  |  | LD50 [8]: > (> indicates greater than 1000); activity against clinical tobramycin resistant strain [6]: greater activity against clinical tobramycin resistant strain 960890198-3c; activity against ts Pseudomonas 27853 ([7]; Table 46): 31; activity against tobramycin resistant versus tobramycin sensitive Pseudomonas [9]: greater activity against tobramycin resistant (tr) Pseudomonas ATCC 13096 than against tobramycin sensitive (ts) Pseudomonas ATCC 27853; activity against tr Pseudomonas 13096 [9]: 4
FALALKALKKAL-NH2 [106 (144)] |  |  |  |  |  |  |  |  |  |  |  | 320 µg/mL | 310 µg/mL | 600 µg/mL | 310 µg/mL | 42.7 µg/mL | 35 µg/mL | 7.7 µg/mL | 740 µg/mL | 
KLAKKLAKLAKLAKAL-OH [121 (160)] |  |  |  |  |  |  |  |  |  |  |  | 900 µg/mL | 240 µg/mL | > 1000 µg/mL | 240 µg/mL | 14.7 µg/mL | 11 µg/mL | 3.7 µg/mL | 700 µg/mL | 
WALAL-NH2 [145 (184)] |  |  |  |  |  |  |  |  |  |  |  | 410 µg/mL | 240 µg/mL | 850 µg/mL | 240 µg/mL | 14 µg/mL | 10 µg/mL | 4 µg/mL | 1000 µg/mL | 
